Test results: PMC3919114, “Induction of Apoptosis of 2,4′,6-Trihydroxybenzophenone in HT-29 Colon Carcinoma Cell Line” (BioMed Research International, 2014)
Read-outs that look alike come from different tables or passages of the source.

Tests used:
[1] = test system: breast cancer cell line (MDA-MB231); settings: cited from earlier work
[2] = test system: human esophageal cancer cells (TE-2); settings: cited from earlier work
[3] = set-up: method as in earlier work; settings: from ethyl acetate extract of the leaves; cited from earlier work
[4] = test system: human normal liver cells (WRL-68); assay: MTT cell proliferation assay, WRL-68; type: cell-based
Description: (§1) The HT-29 human colon carcinoma cell line, WRL-68 normal liver cells, and MRC-5 normal lung fibroblast […] cells were purchased from the American Type Culture Collection (ATCC, USA). The cells were placed into tissue culture flasks and grown in a medium containing 10% fetal bovine serum, 100 μg/mL of penicillin/streptomycin, and 100 μg/mL of amphotericin B at 37°C in a humidified atmosphere containing 5% CO2.
(§2) The MTT […]) cell proliferation assay was based on the protocol described by Mosmann. Briefly, cells from a confluent tissue culture flask were spun at 1,000 rpm for five minutes and resuspended in 1.0 mL of growth medium. Cells were then seeded into 96 well plates and incubated in a CO2 incubator at 37°C for 24 hours to allow the cells to adhere and achieve 70%–80% confluence. After 24 hours, the media was removed and the test compound, at varying concentrations of 4, 38, 96, 192, and 384 μM with 200 μL of 10% medium, was added to the respective wells. For negative control, untreated cells were used. After 24 h, 48 h, and 72 h of incubation, respectively, each well had 10 μL of the MTT stock solution added to the test sample and was then incubated in a dark place for three hours. The medium with the MTT solution was removed and 200 μL of absolute DMSO was added to each well in order to solubilise the formazan crystals that had formed. The total amount of formazan crystals was examined by measuring the absorbance at 540 nm using an ELISA plate reader. The assay was carried out in triplicate.
(§3) The percentage of inhibition (%) was calculated using the following formula: (1) percentage of inhibition (%) =OD control−OD sample×100% /OD control, where OD = optical densities.
(§4) The IC50 value is the concentration of test compounds which cause 50% inhibition or cell death, average from three experiments, and was obtained by plotting the percentage of inhibition versus the concentration of test compounds [13].

[5] = test system: HT-29 cells; assay: Annexin V-FITC/PI staining assay by flow cytometry; type: cell-based, human
Description: (§5) The quantification of cell death was determined by flow cytometry using the Annexin V-FITC apoptosis detection kit according to the manufacturer's instructions (BD Pharmingen, BD Bioscience, USA). Briefly, 1 × 10^6 of the HT-29 cells were seeded into each Petri dish (30 mm) and after a 24 h incubation, various concentrations of the test compound were added and incubated for 24 h, 48 h, and 72 h, respectively. The cells were then washed with PBS, suspended in annexin V binding buffer and then added to an annexin V-FITC solution and propidium iodide (PI) for 10 minutes at room temperature. The samples were then analyzed using FACScalibur (BD Bioscience, USA) using CellQuest Pro analysis software (Becton Dickinson, USA).
(§6) Cells were treated with various concentrations (96 μM, 192 μM, and 288 μM) of the compound for 24 h, 48 h, and 72 h, respectively. They were then harvested with accutase and phosphate buffer saline and centrifuged, after which they were stained with Annexin V-FITC and propidium iodide and analyzed in FACScalibur with CellQuest Pro software. The number of early apoptotic cells, late apoptotic cells, live cells, and necrotic cells was counted in every 10,000 cells of each treatment. All data was expressed as the mean ± SD (standard deviation). The standard deviation was calculated for the treated and untreated cells. The SPSS program (version 16.0) found a significant difference between the treated and untreated cells ([…]).

[6] = Annexin V-FITC/PI staining assay by flow cytometry; type: cell-based, human; settings: human, HT-29 cells, 24 h, read-out: viable cells (LL)
Description: as §5, §6

[7] = test system: Bak; assay: Western blot analysis, Bak expression in HT-29 cells; type: cell-based, human; settings: IC50 concentration (115 μM), 72 h treatment only
Description: (§7) The HT-29 cells were cultured in […] tissue culture flasks and incubated at 37°C under 5% CO2 until confluent. […] After incubation at the various times, the cells were detached with accutase in PBS, washed thoroughly with PBS twice, and were then lysed with protein lysis buffer (Sigma, USA) containingprotease inhibitors and shaken by hand for 15 min at room temperature. The lysates were then centrifuged at 13,000 ×g for 20 min at 4°C and the supernatant was collected for protein samples and kept at […] until SDS page analysis. Protein concentration was determined using a BCA (bicinchoninic acid) protein assay kit (Invitrogen, USA) with bovine serum albumin as the standard.
(§8) The proteins were transferred into polyvinylidene difluoride (PVDF) membranes by semidry transfer. Bands were visualized using the Western Max Horseradish Peroxidase Chromogenic Detection Kit protocol (AMRESCO, USA). Briefly, the membranes were blocked in a blocking buffer for 30 min at room temperature. Primary antibodies for Bcl-2, Bcl-xL, PUMA, Mcl-1, Bak, Bad, and Bax were then added. The membranes were incubated with gentle agitation at room temperature overnight. After incubation, the membranes were washed with washing buffer two times and then incubated with Western Max HRP Conjugated Anti-Rabbit Antibody for 45 min at room temperature with gentle agitation. […]

[8] = test system: HT-29 human colon carcinoma cell line; assay: MTT cell proliferation assay, HT-29; type: cell-based; settings: read-out: IC50 against HT-29 cells
Description: as §1, §2, §3, §4

[9] = test system: HT-29 cells; assay: Cell cycle analysis by flow cytometry (PI staining); type: cell-based, human; settings: IC50 value of 115 μM
Description: After incubation, the cells were collected by trypsinization, fixed in ethanol, washed in warm PBS, and incubated at −20°C, overnight. Next, the cells were washed with 1 mL of cold PBS and stained with propidium iodide according to the Cycle TEST PLUS DNA Reagent Kit (Becton Dickinson, USA) protocol. The cells were sorted in a FACScalibur flow cytometer (BD, USA) using CellQuest Pro software (Becton Dickinson, USA) and a quantitative analysis of the cell cycle distribution was performed using a trial version of the ModFit LT software, version 4.0.
The HT-29 cells were treated with isolated bioactive 2,4′,6-trihydroxy-4-methoxybenzophenone for 24 h, 48 h, and 72 h. Treated and untreated cells were harvested with accutase and phosphate buffer saline, centrifuged, and stained with propidium iodide. The HT-29 cells were then analyzed by flow cytometry using CellQuest Pro software and their distribution in different phases of the cell cycle is shown in Figure 6(a). The resulting data were tabulated using the trial version of the ModFit L.V 4.0 software to represent a percentage of each cell cycle phase (G0/G1, S, and G2/M), as shown in Figure 6(b).

[10] = test system: Mcl-1; assay: Western blot analysis, Mcl-1 expression in HT-29 cells; type: cell-based, human; settings: IC50 concentration (115 μM), 24 h, 48 h and 72 h
Description: as §7, §8

[11] = test system: HT-29 cells; assay: Morphological detection of apoptosis (inverted and phase-contrast microscopy); type: cell-based, human; settings: IC50 concentrations (115 μM), 24 h, 48 h, 72 h
Description: HT-29 cells were placed in a Petri dish (30 mm) at a density of 1 × 10^5 cells/well plate and grown for 24 h. […] After the various incubation periods, morphological changes in the apoptotic bodies of the HT-29 cells were examined by inverted and phase-contrast microscopy (Leica, Germany) and photographed.

[12] = test system: human normal fibroblast lung cells (MRC-5); assay: MTT cell proliferation assay, MRC-5; type: cell-based
Description: as §1, §2, §3, §4

[13] = test system: PUMA; assay: Western blot analysis, PUMA expression in HT-29 cells; type: cell-based, human; settings: IC50 concentration (115 μM), 24 h, 48 h and 72 h
Description: as §7, §8

[14] = test system: Bcl-2; assay: Western blot analysis, Bcl-2 expression in HT-29 cells; type: cell-based, human; settings: IC50 concentration (115 μM), 72 h treatment only
Description: as §7, §8

SMILES: COc1cc(O)c(C(=O)c2ccc(O)cc2)c(O[C@@H]2O[C@H](CO)[C@@H](O)[C@H](O)[C@H]2O)c1 [4′,6-dihydroxy-4-methoxybenzophenone 2-o-β-D-glucopyranoside]
- antiproliferation activity against MDA-MB231 [1]: displayed antiproliferation activity

SMILES: O=C(O)c1cc(O)c(O)c(O)c1 [Gallic acid]
- anticancer properties against TE-2 cells [2]: possess anticancer properties

SMILES: COc1cc(O)c(C(=O)c2ccc(O)cc2)c(O)c1 [2,4′,6-trihydroxy-4-methoxybenzophenone]
- antioxidant activity [3]: good antioxidant activity
- IC50 ([4]; WRL68, 24 h): ≥ 384 µM
- IC50 ([4]; WRL68, 48 h): 331 ± 0.69 µM
- IC50 ([4]; WRL68, 72 h): 235 ± 1.03 µM
- early apoptotic cells (LR) ([5]; 96 μM, 24 h): 2.96%
- late apoptotic cells (UR) ([5]; 96 μM, 24 h): 12.28%
- primary necrotic cells (UL) ([5]; 96 μM, 24 h): 15.49%
- early apoptotic cells (LR) ([5]; 96 μM, 48 h): 10.87%
- late apoptotic cells (UR) ([5]; 96 μM, 48 h): 31.48%
- primary necrotic cells (UL) ([5]; 96 μM, 48 h): 8.04%
- early apoptotic cells (LR) ([5]; 96 μM, 72 h): 1.33%
- late apoptotic or secondary necrotic cells (UR) ([5]; 96 μM, 72 h): 15.77%
- live cells (LL) ([5]; 96 μM, 72 h): 52.21%
- primary necrotic cells (UL) ([5]; 96 μM, 72 h): 30.69%
- early apoptotic cells (LR) ([5]; 192 μM, 24 h): 8.46%
- late apoptotic cells (UR) ([5]; 192 μM, 24 h): 25.98%
- primary necrotic cells (UL) ([5]; 192 μM, 24 h): 30.40%
- early apoptotic cells (LR) ([5]; 192 μM, 48 h): 4.74%
- live cells (LL) ([5]; 192 μM, 48 h): 34.22%
- primary necrotic cells (UL) ([5]; 192 μM, 48 h): 35.05%
- early apoptotic cells (LR) ([5]; 192 μM, 72 h): 14.34%
- late apoptotic or secondary necrotic cells (UR) ([5]; 192 μM, 72 h): 58.97%
- live cells (LL) ([5]; 192 μM, 72 h): 12.73%
- primary necrotic cells (UL) ([5]; 192 μM, 72 h): 13.96%
- early apoptotic cells (LR) ([5]; 288 μM, 24 h): 6.71%
- late apoptotic cells (UR) ([5]; 288 μM, 24 h): 50.81%
- primary necrotic cells (UL) ([5]; 288 μM, 24 h): 19.63%
- early apoptotic cells (LR) ([5]; 288 μM, 48 h): 8.51%
- late apoptotic cells (UR) ([5]; 288 μM, 48 h): 54.67%
- live cells (LL) ([5]; 288 μM, 48 h): 26.80%
- primary necrotic cells (UL) ([5]; 288 μM, 48 h): 10.02%
- early apoptotic cells (LR) ([5]; 288 μM, 72 h): 0.28%
- late apoptotic or secondary necrotic cells (UR) ([5]; 288 μM, 72 h): 8.45%
- live cells (LL) ([5]; 288 μM, 72 h): 54.64%
- primary necrotic cells (UL) ([5]; 288 μM, 72 h): 36.63%
- viability at 24 h, 96 µM ([6]; 96 μM): 69.3%
- viability at 24 h, 192 µM ([6]; 192 μM): 35.2%
- viability at 24 h, 288 µM ([6]; 288 μM): 23.8%
- expression of Bak [7]: only up-regulated for 72 h treatment
- IC50 ([8]; 24 h): 172 ± 2.21 µM
- IC50 ([8]; 48 h): 144 ± 2.66 µM
- IC50 ([8]; 72 h): 122 ± 1.69 µM
- cell percentage in the G2/M phase ([9]; 24 h): 13.61%
- cell percentage in the S phase ([9]; 24 h): 15.70%
- percentage of diploid cells in the G0/G1 phase ([9]; 24 h): 70.69%
- effect on cell cycle ([9]; 24 h, 48 h, 72 h, time-dependent): cell cycle arrest in the G0/G1 phase
- cell percentage in the G2/M phase ([9]; 48 h): 3.17%
- cell percentage in the S phase ([9]; 48 h): 16.85%
- percentage of diploid cells in the G0/G1 phase ([9]; 48 h): 79.98%
- cell percentage in the G2/M phase ([9]; 72 h): 3.20%
- cell percentage in the S phase ([9]; 72 h): 8.60%
- percentage of diploid cells in the G0/G1 phase ([9]; 72 h): 88.21%
- expression of Mcl-1 [10]: significantly upregulated
- morphological changes associated to apoptosis [11]: membrane blebbing, cell shrinkage, chromatin condensation, apoptotic nuclei, and DNA fragmentation
- IC50 ([12]; MRC5, 24 h): ≥ 384 µM
- IC50 ([12]; MRC5, 48 h): 269 ± 0.96 µM
- IC50 ([12]; MRC5, 72 h): 356 ± 1.21 µM
- antiproliferation activity against MDA-MB231 [1]: displayed antiproliferation activity
- expression of PUMA [13]: significantly upregulated
- expression of Bcl-2 [14]: only up-regulated for 72 h treatment
